Source: article PMC6412366, “The Limitations of Collagen/CPP Hybrid Peptides as Carriers for Cancer Drugs to FaDu Cells” (Molecules, 2019)

Tested on: FaDu cell surface
Assay: Suramin wash (competitive binding) of FL8V1-treated FaDu cells
Format: cell-based, human
Conditions: concluded from reversed incubation order
Experimental: FaDu cells were seeded into MatTek dishes (No. 1.5 coverglass, 35 mm). After the cells were at least 70% confluent, the media was removed and the cells were gently washed with PBS. […] The cells were washed twice with PBS. Additional EMEM medium was added before the cell cultures were imaged using confocal microscopy (λEX = 488 for FITC tag) using the 60X oil immersion objective.

Structure (SMILES): Cc1ccc(C(=O)Nc2ccc(S(=O)(=O)O)c3cc(S(=O)(=O)O)cc(S(=O)(=O)O)c23)cc1NC(=O)c1cccc(NC(=O)Nc2cccc(C(=O)Nc3cc(C(=O)Nc4ccc(S(=O)(=O)O)c5cc(S(=O)(=O)O)cc(S(=O)(=O)O)c45)ccc3C)c2)c1 [suramin]
- binding of suramin to the FaDu cell surface: does not bind
